Test results as given in patent US20250186456A1, “PYRIMIDINE-FUSED CYCLIC COMPOUND AND PREPARATION METHOD AND USE THEREOF” (Genfleet Therapeutics (Shanghai) Inc., priority 2021, published 2025).
Read-outs that look alike come from different tables or passages of the source.

How the values were obtained:
Type in all cases: cell-based, human
AGS cells (KRAS G12D) = test: Cell proliferation inhibition assay, 3D, CellTiter-Glo 3D, AGS; conditions: AGS 3D sphere model, 5 days incubation
Procedure, shortened: (§1)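 Spheroids (800 AsPC-1 or 400 AGS cells/well; RPMI-1640 or F-12K with 10% FBS) formed overnight, then were dosed on day 2 with a 3.16-fold series at 0.1% DMSO. After 5 days, viability was read by CellTiter-Glo 3D luminescence, and IC50 came from four-parameter fits of inhibition versus DMSO control and medium blank.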

[1] = test system: p-ERK in AGS cells (KRAS G12D mutation); test: Cell p-ERK assay (HTRF, Advance ERK phospho-T202/Y204 kit); conditions: read-out: AGS p-ERK IC50
Procedure, shortened: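 Phospho-ERK (T202/Y204) measured by HTRF in lysates of human gastric AGS cells carrying KRAS G12D, after 3 h compound exposure at 0.1% DMSO over a 3.16-fold series. Percent inhibition relative to DMSO control and lysis-only blank; four-parameter curve fitting gave IC50.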

[2] = test system: AsPC-1 cells (KRAS G12D mutation); test: Cell proliferation inhibition assay, 3D, CellTiter-Glo 3D, AsPC-1; conditions: AsPC-1 3D sphere model, 5 days incubation
Procedure, shortened: as §1

[3] = Homo sapiens, AGS cells, 3 hours incubation with compound, HTRF
[4] = AGS cells, 3 hours incubation with compound, HTRF

Row | Compound | IC50 (AGS cells (KRAS G12D); Homo sapiens, 120 h) | IC50 [1, 3] | IC50 ([2]; Homo sapiens, ASPC1, 120 h) | IC50 (AGS cells (KRAS G12D)) | IC50 [1, 4] | IC50 [2] | IC50 ([1]; Homo sapiens, AGS, 3 h)
1 | C#Cc1cccc2cc(N)cc(-c3nc4c5c(nc(OCC6(CO)CC6)nc5c3F)N3C[C@H]5CC[C@H](N5)[C@H]3[C@H](C)O4)c12 [Example Z701, (1-((((5S,5aS,6S,9R)-2-(3-amino-8-ethynylnaphthalen-1-yl)-1-fluoro-5-methyl-5a,6,7,8,9,10-hexahydro-5H-4-oxa-3,10a, 11,13,14-pentaaza-6,9-methanonaphtho[1,8-ab]heptalen-12-yl)oxy)methyl)cyclopropyl)methanol] | 230 nM | 39.5 nM | 245 nM |  |  |  | 
2 | C#Cc1cccc2cccc(-c3nc4c5c(nc(OC[C@@]67CCCN6CCC7=C)nc5c3F)N3C[C@H]5CC[C@H](N5)[C@H]3[C@H](C)O4)c12 [Example Z702, (5S,5aS,6S,9R)-2-(8-ethynylnaphthalen-1-yl)-1-fluoro-5-methyl-12-(((S)-1-methylenetetrahydro-1H-pyrrolizin-7a (5H)-yl)methoxy)-5a,6,7,8,9,10-hexahydro-5H-4-oxa-3,10a, 11,13,14-pentaaza-6,9-methanonaphtho[1,8-ab]heptalene] | 26.8 nM | 11.1 nM | 51.9 nM |  |  |  | 
3 | C#Cc1cccc2cc(N)cc(-c3nc4c5c(nc(OCC67CC(=C)CN6CC(=C)C7)nc5c3F)N3C[C@H]5CC[C@H](N5)[C@H]3[C@H](C)O4)c12 [Example Z703, 4-((5S,5aS,6S,9R)-12-((2,6-dimethylenetetrahydro-1H-pyrrolizin-7a (5H)-yl)methoxy)-1-fluoro-5-methyl-5a,6,7,8,9,10-gexahydro-5H-4-oxa-3,10a,11,13,14-pentaaza-6,9-methanonaphtho[1,8-ab]heptalene-2-yl)-5-ethynylnaphthalen-2-amine] |  |  |  | 2.64 nM | 1.05 nM | 1.78 nM | 
4 | C#Cc1cccc2cc(N)cc(-c3nc4c5c(nc(OCC67CCCN6CC(F)(F)C7)nc5c3F)N3C[C@H]5CC[C@H](N5)[C@H]3[C@H](C)O4)c12 (stereo partly drawn) [Example Z706, 4-((5S,5aS,6S,9R)-12-((2,2-difluorotetrahydro-1H-pyrrolizin-7a (5H)-yl)methoxy)-1-fluoro-5-methyl-5a,6,7,8,9,10-hexahydro-5H-4-oxa-3,10a,11,13,14-pentaaza-6,9-methanonaphtho[1,8-ab]heptalen-2-yl)-5-ethynylnaphthalen-2-amine] | 26 nM | 6.64 nM | 37.9 nM |  |  |  | 
5 | C#Cc1c(F)ccc2cc(O)cc(-c3nc4c5c(nc(OCC6(CO)CC6)nc5c3F)N3C[C@H]5CC[C@H](N5)[C@H]3[C@H](C)O4)c12 [Example Z708, 5-ethynyl-6-fluoro-4-((5S,5aS,6S,9R)-1-fluoro-12-((1-(hydroxymethyl)cyclopropyl)methoxy)-5-methyl-5a,6,7,8,9,10-hexahydro-5H-4-oxa-3,10a, 11,13,14-pentaaza-6,9-methanonaphtho[1,8-ab]heptalene-2-yl) naphthalen-2-ol] | 176 nM |  | 941 nM |  |  |  | 38.5 nM
6 | C#Cc1cccc2cc(N)cc(-c3nc4c5c(nc(OCC6(CN7CCOCC7)CC6)nc5c3F)N3C[C@@H](C)NC[C@H]3[C@H](C)O4)c12 [Example Z709, 5-ethynyl-4-((5S,5aS,8R)-1-fluoro-5,8-dimethyl-11-((1-(morpholinomethyl)cyclopropyl)methoxy)-5,5a,6,7,8,9-hexahydro-4-oxa-3,7,9a,10,12-pentaazabenzo[4,5]cyclohepta[1,2,3-de]naphthalen-2-yl) naphthalen-2-amine] | 86.8 nM | 12.2 nM | 117 nM |  |  |  | 
7 | C#Cc1cccc2cc(N)cc(-c3nc4c5c(nc(OCC6(CN7CC[C@@H](F)C7)CC6)nc5c3F)N3C[C@H]5CC[C@H](N5)[C@H]3[C@H](C)O4)c12 [Example Z710, 5-Ethynyl-4-((5S,5aS,6S,9R)-1-Fluoro-12-((1-(((R)-3-Fluoropyrrolidin-1-Yl)Methyl)Cyclopropyl)Methoxy)-5-Methyl-5a,6,7,8,9,10-Hexahydro-5H-4-Oxa-3,10a,11,13,14-Pentaaza-6,9-Methanonaphtho[1,8-Ab]Heptalen-2-Yl) Naphthalen-2-Amine] | 4.26 nM | 0.34 nM | 3.72 nM |  |  |  | 
8 | C#Cc1cccc2cc(N)cc(-c3nc4c5c(nc(OCC67CC(=C)CN6CC(F)(F)C7)nc5c3F)N3C[C@H]5CC[C@H](N5)[C@H]3[C@H](C)O4)c12 (stereo partly drawn) [Example Z711, 4-((5S,5aS,6S,9R)-12-((2,2-difluoro-6-methylenetetrahydro-1H-pyrrolizin-7a (5H)-yl)methoxy)-1-fluoro-5-methyl-5a,6,7,8,9,10-hexahydro-5H-4-oxa-3,10a,11,13,14-pentaaza-6,9-methanonaphtho[1,8-ab]heptalen-2-yl)-5-ethynylnaphthalen-2-amine] | 54.2 nM | 13.3 nM | 85.6 nM |  |  |  | 
9 | C#Cc1cccc2cc(N)cc(-c3nc4c5c(nc(OCC6(CN7CCC(F)(F)C7)CC6)nc5c3F)N3C[C@H]5CC[C@H](N5)[C@H]3[C@H](C)O4)c12 [Example Z712, 4-((5S,5aS,6S,9R)-12-((1-((3,3-difluoropyrrolidin-1-yl)methyl)cyclopropyl)methoxy)-1-fluoro-5-methyl-5a,6,7,8,9,10-hexahydro-5H-4-oxa-3,10a, 11, 13, 14-pentaaza-6,9-methanonaphtho[1,8-ab]heptalen-2-yl)-5-ethynylnaphthalen-2-amine] | 60.7 nM | 28.2 nM | 30.4 nM |  |  |  | 
10 | C#Cc1cccc2cc(N)cc(-c3nc4c5c(nc(OCC6(CN7CC(F)(F)C7)CC6)nc5c3F)N3C[C@H]5CC[C@H](N5)[C@H]3[C@H](C)O4)c12 [Example Z713, 4-((5S,5aS,6S,9R)-12-((1-((3,3-difluoroazetidin-1-yl)methyl)cyclopropyl)methoxy)-1-fluoro-5-methyl-5a,6,7,8,9,10-hexahydro-5H-4-oxa-3,10a, 11, 13,14-pentaaza-6,9-methanonaphtho[1,8-ab]heptalen-2-yl)-5-ethynylnaphthalen-2-amine] | 73.5 nM | 22 nM | 55.6 nM |  |  |  | 
11 | C#Cc1cccc2cc(N)cc(-c3nc4c5c(nc(OCC6(CN(C)CC(F)(F)F)CC6)nc5c3F)N3C[C@H]5CC[C@H](N5)[C@H]3[C@H](C)O4)c12 [Example Z714, 5-Ethynyl-4-((5S,5aS,6S,9R)-1-Fluoro-5-Methyl-12-((1-((Methyl(2,2,2-Trifluoroethyl)Amino)Methyl)Cyclopropyl)Methoxy)-5a,6,7,8,9,10-Hexahydro-5H-4-Oxa-3,10a,11,13,14-Pentaaza-6,9-Methanonaphtho[1,8-Ab]Heptalen-2-Yl) Naphthalen-2-Amine] | 673 nM | 622 nM | 815 nM |  |  |  | 
12 | C#Cc1cccc2c(F)c(N)cc(-c3nc4c5c(nc(OCC6(CN7CCOCC7)CC6)nc5c3F)N3C[C@H]5CC[C@H](N5)[C@H]3[C@H](C)O4)c12 [Example Z715, 5-ethynyl-1-fluoro-4-((5S,5aS,6S,9R)-1-fluoro-5-methyl-12-((1-(morpholinomethyl)cyclopropyl)methoxy)-5a,6,7,8,9,10-hexahydro-5H-4-oxa-3,10a, 11,13, 14-pentaaza-6,9-methanonaphtho[1,8-ab]heptalen-2-yl) naphthalen-2-amine] | 3.44 nM | 1.94 nM | 3.83 nM |  |  |  | 
13 | Cc1cc(-c2nc3c4c(nc(OCC5(CN6CCOCC6)CC5)nc4c2F)N2C[C@H]4CC[C@H](N4)[C@H]2[C@H](C)O3)c(C)c(N)c1C1CC1 [Example Z716, 2-cyclopropyl-5-((5S,5aS,6S,9R)-1-fluoro-5-methyl-12-((1-(morpholinomethyl)cyclopropyl)methoxy)-5a,6,7,8,9,10-hexahydro-5H-4-oxa-3,10a, 11,13,14-pentaaza-6,9-methanonaphtho[1,8-ab]heptalen-2-yl)-3,6-dimethylaniline] | 48.6 nM | 81.8 nM | 89.2 nM |  |  |  | 
14 | Cc1cc(N)c(C)c(-c2nc3c4c(nc(OCC5(CN6CCOCC6)CC5)nc4c2F)N2C[C@H]4CC[C@H](N4)[C@H]2[C@H](C)O3)c1C1CC1 [Example Z717, 4-cyclopropyl-3-((5S,5aS,6S,9R)-1-fluoro-5-methyl-12-((1-(morpholinomethyl)cyclopropyl)methoxy)-5a,6,7,8,9,10-hexahydro-5H-4-oxa-3,10a, 11,13,14-pentaaza-6,9-methanonaphtho[1,8-ab]heptalen-2-yl)-2,5-dimethylaniline] | 29.1 nM | 14.8 nM | 50.2 nM |  |  |  | 
15 | C#Cc1cccc2cc(N)cc(-c3nc4c5c(nc(O[C@@H]6CCC[C@H]6O)nc5c3F)N3C[C@H]5CC[C@H](N5)[C@H]3[C@H](C)O4)c12 [Example Z718, (1R,2R)-2-(((5S,5aS,6S,9R)-2-(3-amino-8-ethynylnaphthalen-1-yl)-1-fluoro-5-methyl-5a,6,7,8,9,10-hexahydro-5H-4-oxa-3,10a,11,13,14-pentaaza-6,9-methanonaphtho[1,8-ab]heptalen-12-yl)oxy)cyclopentan-1-ol] | 455 nM | 157 nM | 429 nM |  |  |  | 
16 | C[C@@H]1Oc2nc(-c3cc(N)cc4ccc(F)c(F)c34)c(F)c3nc(OCC4(CN5CCOCC5)CC4)nc(c23)N2C[C@H]3CC[C@H](N3)[C@@H]12 [Example Z719, 5,6-difluoro-4-((5S,5aS,6S,9R)-1-fluoro-S-methyl-12-((1-(morpholinomethyl)cyclopropyl)methoxy)-5a,6,7,8,9,10-hexahydro-5H-4-oxa-3,10a, 11,13,14-pentaaza-6,9-methanonaphtho[1,8-ab]heptalene-2-yl) naphthalen-2-amine] |  |  |  | 1.03 nM | 1.16 nM | 3 nM | 
